Assay results: patent US11413278B2, “Compounds and methods for promoting stress resistance” (priority 2015, dated 2022)
Read-outs that look alike come from different tables or passages of the source.

Assays:
human PARP1 = target: T1, human PARP1 (Homo sapiens, UniProt P09874); assay: PARP inhibitor assay (HT Fluorescent Homogeneous PARP Inhibition Assay Kit); format: biochemical; details: score
T1 construct: purchased Trevigen
Outline: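 Compounds (10 μM final) incubated 30 min, room temperature, dark, with human PARP1, nicotinamide adenine dinucleotide and activated DNA. Fluorescent signal generated by 1 hr cycling with diaphorase and resazurin, then reaction stopped.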

WI-38 cells [1] = assay: CdCl2 (cadmium) resistance assay; format: cell-based, human; details: for fold induction at 10 µM: Homo sapiens, 12 h, normalized ATP measurement; for Assay 4: H2O2- & Cd-resistant / Assay 2: Cadmium-resistant: YES/NO; for Assay 2: Cadmium-resistant: * indicates partial
Outline: (§1)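 Resistance to CdCl2 or MMS stress (12 h exposure) was scored in WI-38 fibroblasts pretreated with compound at 0.25–20 μM final, five doses, technical triplicates. MMS plates had compound added 24 h before MMS, after a shift to serum-free DMEM+2% BSA. Significance came from a global variance t-test over two independent runs.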

WI-38 cells [2] = assay: MMS resistance assay; format: cell-based, human; details: for fold induction at 10 µM: Homo sapiens, 12 h, normalized ATP measurement; for Assay 3: MMS-resistant / Assay 5: Triple resistant: YES/NO; for Assay 3: MMS-resistant: * indicates partial; for Assay 5: Triple resistant: H2O2, cadmium and MMS
Outline: as §1

C. elegans = format: in vivo, Caenorhabditis elegans; details: in vivo
Description: The worms were treated with the small molecules in liquid, with H2O2 (500 μM final concentration) added on day 4 of adulthood, and scored for viability everyday
FUdR was used to block progeny production. The molecules were analyzed in 96-well plates, with 4 wells for each small molecule. Multiple control wells with DMSO (0.2% final concentration) were included. […] Day 1 adults were transferred onto mini-plates, seeded with OP50 bacteria (UV-irradiated, kanamycin-treated) and supplemented with small molecules (˜60 μM final concentration, 0.2% DMSO). Worms were scored every other day. Cumulative survival was analyzed using the STATA software (log-rank test). […] The worms were treated with the small molecules in liquid, with H2O2 (500 μM final concentration) added on day 4 of adulthood, and scored for viability every day.

[3] = tested on: phosphorylated γH2A.X and TP53BP1; assay: DNA damage marker analysis (immuno-staining); details: for activity at 10 µM: Homo sapiens, WI-38, 24 h; for P = Potential DNA-damaging / R = Potential DNA damaging: human, 24 h
Description: WI-38 cells were seeded on 96-well plates and cultured for 24 hrs and then incubated with small molecules for another 24 hrs. As the positive control to damage DNA, H2O2 was supplemented at 700 μM final concentration for the last 3 hrs. Cells were washed with phosphate-buffered saline (PBS), fixed with 4% paraformaldehyde and then blocked with 5% normal goat serum (Cell Signaling), plus 0.3% Triton X-100, for 1 hr. Primary antibody cocktail (rabbit anti-phospho-histone γH2A.X (Ser-139), 1:100; anti-phospho-TP53BP1 (Ser-1778), 1:100), prepared in 1% BSA and 0.3% Triton X-100/PBS, was then introduced and incubated overnight at 4 C. Next day, samples were washed with PBS and further incubated with fluorophore-conjugated secondary antibody (1:1,000) for 1 hr in the dark. Samples were then washed and incubated with DAPI dye (Life Technologies) (4 μg/ml final concentration) for the last 10 minutes. Images were collected on an INCell Analyzer 2000 (GE) and analyzed with the Developer software.
WI-38 cells were seeded (˜8,000 cells per well) on 96-well plates and cultured for 24 hrs and then incubated with small molecules for another 24 hrs. Doxorubicin (300 nM, 24 hrs) and H2O2 (700 μM, 3 hrs) were also introduced as the positive controls to damage DNA. Cells were washed with phosphate-buffered saline (PBS), fixed with 4% paraformaldehyde for 30 min and then blocked with 5% normal goat serum (Cell Signaling) and 0.3% Triton X-100 for 1 hr. Primary antibody cocktail (Cell Signaling, rabbit anti-phospho-histone γH2A.X (Ser-139), 1:100; anti-phospho-TP53BP1 (Ser-1778), 1:100) was prepared in PBS with 1% BSA and 0.3% Triton X-100 and incubated overnight at 4° C. Next day, samples were washed with PBS and further incubated with fluorophore-conjugated secondary antibody (1:1,000) for 1 hr in dark. Samples were then washed and incubated with DAPI dye (Life Technologies) (4 μg/ml final concentration) for 30 minutes. Images were collected on the INCell Analyzer 2000 (10× objective) and analyzed with the Developer Toolbox.

WI-38 cells [4] = details: for No H2O2 stress treatment, at 10 uM (fold change): normalized ATP measurement; for Assay 1: H2O2-resistant: YES/NO, if NO, possibly due to repeated freezing/thawing of stocks
[5] = Exp. 1, WI-38 cells, read-out: Exp. 1, under Cd2Cl2 stress treatment, at 10 uM (fold change)
[6] = Exp. 2, WI-38 cells, read-out: Exp. 2, under Cd2Cl2 stress treatment, at 10 uM (fold change)
[7] = score in summary of 38 core set hits
[8] = Exp. 1, WI-38 cells, read-out: Exp. 1, under MMS stress treatment, at 10 uM (fold change)
[9] = Exp. 2, WI-38 cells, read-out: Exp. 2, under MMS stress treatment, at 10 uM (fold change)
[10] = read-out: Experiment 1, H2A.X-P DNA damage foci staining (no H2O2 stress treatment), at 10 uM
[11] = read-out: Experiment 2, H2A.X-P DNA damage foci staining (no H2O2 stress treatment), at 10 uM
[12] = read-out: Experiment 2, H2A.X-P DNA damage foci staining (under H2O2 stress treatment), at 10 uM
[13] = read-out: Experiment 2, TP53BP1-P DNA damage foci staining (no H2O2 stress treatment), at 10 uM
[14] = read-out: Experiment 2, TP53BP1-P DNA damage foci staining (under H2O2 stress treatment), at 10 uM
[15] = WI-38 cells, 10 μM, (*) = compromised ability to protect cells from H2O2, could be due to stability issue
[16] = asterisks indicate the loss of the ability to protect cells from H2O2 over time
[17] = derived from dose response curves, 0.6-20 uM, H2O2-resistance of WI-38 cells
[18] = read-out: Est. ED50, dose response 0.6-20 μM, H2O2-resistance
[19] = WI-38 cells, 10 μM, both stressors

T1 sequence (P09874 whole entry): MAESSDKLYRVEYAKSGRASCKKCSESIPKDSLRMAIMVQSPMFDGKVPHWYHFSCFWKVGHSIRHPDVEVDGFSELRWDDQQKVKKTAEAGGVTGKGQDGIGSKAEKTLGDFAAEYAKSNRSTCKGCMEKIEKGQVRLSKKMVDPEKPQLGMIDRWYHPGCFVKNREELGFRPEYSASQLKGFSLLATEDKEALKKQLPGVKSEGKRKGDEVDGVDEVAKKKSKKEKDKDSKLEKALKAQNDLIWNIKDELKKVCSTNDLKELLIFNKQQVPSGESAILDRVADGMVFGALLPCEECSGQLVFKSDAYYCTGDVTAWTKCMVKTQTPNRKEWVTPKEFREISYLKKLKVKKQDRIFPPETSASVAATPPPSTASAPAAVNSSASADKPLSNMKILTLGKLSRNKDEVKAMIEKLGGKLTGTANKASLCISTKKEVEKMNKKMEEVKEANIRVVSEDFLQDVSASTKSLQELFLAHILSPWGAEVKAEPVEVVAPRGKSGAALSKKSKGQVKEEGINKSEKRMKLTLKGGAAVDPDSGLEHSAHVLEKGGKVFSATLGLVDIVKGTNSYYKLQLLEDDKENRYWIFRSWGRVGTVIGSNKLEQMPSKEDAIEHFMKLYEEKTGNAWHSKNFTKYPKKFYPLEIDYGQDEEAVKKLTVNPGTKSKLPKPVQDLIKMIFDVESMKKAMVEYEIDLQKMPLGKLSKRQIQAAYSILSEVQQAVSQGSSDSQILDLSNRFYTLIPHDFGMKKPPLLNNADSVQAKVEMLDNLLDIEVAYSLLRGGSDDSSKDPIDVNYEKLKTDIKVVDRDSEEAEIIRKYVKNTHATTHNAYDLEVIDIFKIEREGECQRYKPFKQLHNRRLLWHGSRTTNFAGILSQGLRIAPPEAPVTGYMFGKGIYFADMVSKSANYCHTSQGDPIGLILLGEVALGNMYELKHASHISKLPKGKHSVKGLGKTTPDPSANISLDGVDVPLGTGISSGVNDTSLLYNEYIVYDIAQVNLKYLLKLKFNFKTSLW

Compound | L = PARP inhibition (human PARP1) | fold induction at 10 µM (WI-38 cells [1]; [5]) | fold induction at 10 µM (WI-38 cells [1]; [6]) | Assay 4: H2O2- & Cd-resistant (WI-38 cells [1]) | Assay 2: Cadmium-resistant (WI-38 cells [1]) | A = Cadmium resistant (WI-38 cells [1]; [7]) | A = Cadmium resistant (WI-38 cells [1]; summary score) | C = H2O2- & Cd-resistant (WI-38 cells [1]; summary score) | fold induction at 10 µM (WI-38 cells [2]; [8]) | fold induction at 10 µM (WI-38 cells [2]; [9]) | B = MMS resistant (WI-38 cells [2]; [7]) | B = MMS resistant (WI-38 cells [2]; summary score) | D = Triple resistant (WI-38 cells [2]; summary score) | L = H2O2-resistance in worms (C. elegans) | N = H2O2-resistance in woms (C. elegans) | activity at 10 µM [3, 10] [%] | activity at 10 µM [3, 11] [%] | activity at 10 µM [3, 12] [%] | activity at 10 µM [3, 13] [%] | P = Potential DNA-damaging [3] | further results
Cc1cc(C)c(C(=O)/C=C/c2ccccc2F)c(O)n1 [O18] | 0 | 1.5 | 1.24 | YES | YES | 0 | 1 | 1 | 1.11 | 1.48 | 0 | 1 | 2 | 0 | 0 | 364 | 143 | 137 | 183 | 0 | Assay 3: MMS-resistant (WI-38 cells [2]): YES; Assay 5: Triple resistant (WI-38 cells [2]): YES; activity at 10 µM [3, 14]: 450%; R = Potential DNA damaging [3]: 0; H2O2-resistant (WI-38 cells [4]; [15]): YES; No H2O2 stress treatment, at 10 uM (fold change) (WI-38 cells [4]; WI-38 cells): 0.99 fold change; Assay 1: H2O2-resistant (WI-38 cells [4]): YES; H2O2-resistant (WI-38 cells [4]; [16]): YES; EC50 (WI-38 cells [4]; [17]): 9.8 µM; EC50 (WI-38 cells [4]; [18]): 9.8 µM
O=C(Nc1ccc(Cl)c(Cl)c1)c1ccc([N+](=O)[O-])o1 [Gr-1G] | 0 | 3.81 | 7.21 | YES | YES | 1 | 1 | 1 | 1.32 | 1.89 | 0 | 0 | 0 | 0 | 0 | 150 | 179 | 63.3 | 256 | 0 | CdCl2-resistant (WI-38 cells [1]): YES; H2O2- & CdCl2-resistant (WI-38 cells [1]): YES; CdCl2-resistant (WI-38 cells [1]; WI-38 cells, 10 μM): YES; H2O2- & CdCl2-resistant (WI-38 cells [1]; [19]): YES; R = Potential DNA damaging [3]: 0; H2O2-resistant (WI-38 cells [4]; [15]): YES; Assay 1: H2O2-resistant (WI-38 cells [4]): YES; H2O2-resistant (WI-38 cells [4]; [16]): YES; EC50 (WI-38 cells [4]; [17]): 4.8 µM; EC50 (WI-38 cells [4]; [18]): 2.95 µM
O=C(NCc1cccnc1)/C(=C\c1ccc(Br)cc1)S(=O)(=O)c1ccccc1 [Gr-7B] | 0 | 0.12 | 0.26 | YES | YES | 0 | 1 | 1 | 0.39 | 1.45 | 0 | 0 | 0 | 0 | 0 | 695 | 348 | 74 | 31.3 | 0 | H2O2-resistance assay, 1st experiment (C. elegans): YES;; activity at 10 µM [3, 14]: 4.2%; R = Potential DNA damaging [3]: 0; H2O2-resistant (WI-38 cells [4]; [15]): YES (*); No H2O2 stress treatment, at 10 uM (fold change) (WI-38 cells [4]; WI-38 cells): 0.56 fold change; Assay 1: H2O2-resistant (WI-38 cells [4]): YES; H2O2-resistant (WI-38 cells [4]; [16]): YES (*); EC50 (WI-38 cells [4]; [18]): 24.7 µM
O=C(Nc1cccc(C(F)(F)F)c1)c1ccc([N+](=O)[O-])o1 [Gr-1E] | 0 | 6.69 | 8.82 | YES | YES | 1 | 1 | 1 | 0.72 | 1.21 | 0 | 0 | 0 | 0 | 0 | 162 | 107 | 151 | 289 | 0 | CdCl2-resistant (WI-38 cells [1]): YES; H2O2- & CdCl2-resistant (WI-38 cells [1]): YES; CdCl2-resistant (WI-38 cells [1]; WI-38 cells, 10 μM): YES; H2O2- & CdCl2-resistant (WI-38 cells [1]; [19]): YES; Assay 3: MMS-resistant (WI-38 cells [2]): NO *; Assay 5: Triple resistant (WI-38 cells [2]): YES; activity at 10 µM [3, 14]: 475%; R = Potential DNA damaging [3]: 0; H2O2-resistant (WI-38 cells [4]; [15]): YES; No H2O2 stress treatment, at 10 uM (fold change) (WI-38 cells [4]; WI-38 cells): 0.96 fold change; Assay 1: H2O2-resistant (WI-38 cells [4]): YES; H2O2-resistant (WI-38 cells [4]; [16]): YES; EC50 (WI-38 cells [4]; [17]): 3.7 µM; EC50 (WI-38 cells [4]; [18]): 2.76 µM
